The values that follow come from US20110034335A1, “Treatment of Ornamental Plants” (priority 2009, published 2011).

Holding throughout (assay type): in vivo
In one test the test system is Dianthus “Ideal White”. The test can be described thus: Racks of flowering plants sprayed, truck 14 hours, ethylene challenge (Example 8). The settings on record: 25 mg/L, 200 ml/square meter, scale 0 (poor) to 2 (good). Here is the method: (§1) Spray applications were made using (unless otherwise noted) AFxRD-038 powder containing 3.8% active ingredient, i.e. 1-MCP, and also containing dextrose, alpha-cyclodextrin, and amino acid salt. Rates listed are for active ingredient e.g. 5 mg active ingredient per liter. Sprayed liquid contained (unless otherwise noted) AFxRD-038 powder added to water. AFxRD-038 powder was obtained from AgroFresh Inc. The water used (unless otherwise noted) was tap water. Applications were done in 500 ml spray bottles at rates typical for growth regulators applications in the ornamental industry i.e., 200 ml per square meter. Spraying was done within 5-15 minutes of mixing the formulation. Plants were allowed to dry for 1-4 hours before being challenged with ethylene (2 ppm for about 16 hours at ambient temperatures).
(§2) Racks of flowers were sprayed with spray liquid containing 25 mg/L at rate of 200 ml/square meter. Racks were then placed into a full enclosed truck (length 7.3 meter) for 14 hours. Plants were then challenged with ethylene and evaluated 3 and 7 days later, using a rating scale from 0 (poor) to 2 (good). […]

Test [1] has as its system Callibrachoa “Cherry Blossom”. Described as above. As to conditions: 25 mg/L, 200 ml/square meter, scale 0 (poor) to 2 (good). Here is the method:
as §1, §2

A further test deals with Impatiens (double pink). The description is as above. The settings on record: 25 mg/L, 200 ml/square meter, scale 0 (poor) to 2 (good). Here is the method: as §1, §2
The next test concerns Verbena “babylon Red”. Described as above. The settings on record: 25 mg/L, 200 ml/square meter, scale 0 (poor) to 2 (good). Here is the method:
as §1, §2

Test [2] relates to racks of flowering plants. The test can be described thus: Racks of flowering plants, overall comparison sprayed vs control (Example 8). As to conditions: 25 mg/L; every variety. Here is the method: as §1
Racks of flowers were sprayed with spray liquid containing 25 mg/L at rate of 200 ml/square meter. Racks were then placed into a full enclosed truck (length 7.3 meter) for 14 hours. Plants were then challenged with ethylene and evaluated 3 and 7 days later, using a rating scale from 0 (poor) to 2 (good). […] Results were as follows:
In no case was the sprayed plant worse to a statistically significant degree than the corresponding control plant. In most cases the sprayed plant was better than the corresponding control plant.

With `CC1=CC1` [1-MCP, 1-methylcyclopropene], the “rating, Sprayed” value in the test with Dianthus “Ideal White” (Day 3) came out at 0.92 a; in the test with Dianthus “Ideal White” (Day 7), 1.00 a; in test [1] (Day 3) it was 1.00 a; in test [1] (Day 7), 1.00 a; in the test with Impatiens (double pink) (Day 3) it was 1.00 a; in the test with Impatiens (double pink) (Day 7), 0.58 a. Also, the “rating, Sprayed” value with Verbena “babylon Red” (Day 3) came to 0.58 a; with Verbena “babylon Red” (Day 7) it was 0.19 a. Further, the “sprayed plant compared with control plant” value in test [2] is recorded as “better than the control plant at day 3 or at day 7 or at both”.
